Reference: patent US12013390B2, “EBIV nucleic acid composition and application thereof” (Wuhan Institute of Virology, Chinese Academy of Sciences, priority 2022, dated 2024)

Test system: BHK-21 cells
Assay: Cell viability per well (percentage of cells remaining) observed under a microscope in the drug screening test
Assay type: cell-based, hamster
Settings: infected BHK-21 cells with drug, 36 hours
Procedure: (1) A 96-well plate for BHK-21 cells was prepared. The cells were planked at 10^4 cells/well. The plate was cultured in a cell incubator with a temperature of 37° C. and a CO2 concentration of 5%. The drug screening test was conducted when the cells grew to 40-50%. The drug to be tested was dissolved in dimethyl sulfoxide. Then the drug was diluted to 100 μM with DMEM medium containing 2% FBS. After that, the drug was subjected to serial 2-fold dilution to obtain the dilution gradient with the concentration of 100 μM, 50 μM, 25 μM, 12.5 μM, 6.25 μM, 3.125 μM, and 1.5625 μM, respectively (the concentration of DMSO in the diluted drug shall be <0.1%).
(2) The original culture medium was removed from the 96-well plate. The virus was inoculated into the 96-well plate at an MOI of 0.01 and a volume of 100 μL/well. At the same time, the diluted drugs to be tested were respectively added into the same 96-well plate at 100 μL/well and mixed well with the virus solution. The plate was incubated in a cell incubator with a temperature of 37° C. and a CO2 concentration of 5% for 36 hours before detection.
(4) Cell viability per well (and the percentage of cells remaining per well) was observed under a microscope and the half-maximal effect concentration (EC50) of the drug was calculated using GraphPad Prism 9 software and an EC50 graph was plotted.

Compound	Cell viability	other results
CC(C)=CCC(OC(=O)C=C(C)C)C1=CC(=O)c2c(O)ccc(O)c2C1=O (stereo not drawn) [Beta, beta-dimethyl acryl shikonin]	70%	
C[C@@]12C(=O)OC(=O)[C@]1(C)[C@H]1CC[C@@H]2O1 [Cantharidin]	50%	
C[C@H](CCC(=O)O)[C@H]1CC[C@H]2[C@@H]3[C@H](O)C[C@@H]4C[C@H](O)CC[C@]4(C)[C@H]3CC[C@]12C [Chenodeoxycholic acid, reference compound]	70%	
COc1ccc(-c2cc(=O)c3c(O)cc(O[C@@H]4O[C@H](CO[C@@H]5O[C@@H](C)[C@H](O)[C@@H](O)[C@H]5O)[C@@H](O)[C@H](O)[C@H]4O)cc3o2)cc1O [Diosmin, reference compound]	100%	Cell viability (listed as diosmin): 100%
Oc1cc(O)c2c(c1)O[C@H](c1cc(O)c(O)c(O)c1)[C@H](O)C2 [Epigallocatechol]	0%	
CC(C)=CCc1c(O)ccc(C(=O)/C=C/c2ccc(O)cc2)c1O [Isobavachalcone]	30%	
CC(C)=CCc1cc2c(cc1O)oc(=O)c1c3ccc(O)cc3oc21 [Psoralidin]	50%	
C=C[C@H]1[C@H](O[C@@H]2O[C@H](CO)[C@@H](O)[C@H](O)[C@H]2O)OC=C(C(=O)OC)[C@H]1CC(=O)O [Secoxyloganin]	100%	Cell viability (listed as secoxyloganin): 100%
Clinodiside Aogenin A	100%	Cell viability (listed as clinodiside A): 100%
